Measured values taken from patent publication US11571407B2, “Bicalutamide analogs or (S)-bicalutamide as exocytosis activating compounds for use in the treatment of a lysosomal storage disorder or glycogenosis” (BCN PEPTIDES, S.A., priority 2013, dated 2023).
Marks after values point to notes of the source that are not given here.

Assays:
[1] = test system: fibroblasts from patients affected by different lysosomal storage diseases; experiment: Determination of lysosomal exocytosis (β-hexosaminidase activity in the culture medium); type: cell-based, human; conditions: for Increase in exocytosis (%), Median: Table 4 median over the patients' fibroblasts; for Increase in exocytosis (%), Median / Increase in exocytosis (%): 72 h; for cell cultures with significantly increased lysosomal exocytosis: thirteen patient fibroblast cultures, 50 and 100 μM, 72 hours
Procedure: (§1) Fibroblasts from thirteen patients affected by seven different lysosomal storage diseases (Fabry, Gaucher, Hurler, Niemann-Pick type A/B, Sanfilippo A, Sanfilippo B and Tay-Sachs) were cultured in DMEM (Dulbecco's modified Eagles medium) with 10% fetal bovine serum and in the presence of antibiotics (penicillin and streptomycin), at 37° C. with 5% CO2. All reagents were purchased from PAA Laboratories (Velizy-Villacoublay, France). The fibroblasts of the patients were selected on the basis of availability of fibroblasts and measurable residual activity. The use of human samples was approved by the Ethical Committee of Hospital Clinic, Barcelona
Fibroblasts cultured for 72 h in 24 well-plates in the presence or absence of bicalutamide, (S)-bicalutamide, (S)-bicalutamide analogs or (R)-bicalutamide at different concentrations in triplicate (10 nmol/L, 100 nmol/L, 1 μmol/L, 10 μmol/L, 50 μmol/L and 100 μmol/L), were rinsed with physiological saline. The cells were lysed by using 3 freeze-thaw cycles. Then protein concentration was determined by using the Lowry method. Protein lysates (10 μg) were seeded in 96-well plates and the enzymatic activity of the enzyme involved in each disease was determined in triplicate by means of fluorimetric artificial substrates: 4-methylumbelliferyl-α-N-sulphoglucosaminide for Sanfilippo A, 4-methylumbelliferyl-2-acetamido-2 deoxy-α-D-glucopyranoside for Sanfilippo B, 4-methylumbelliferyl-α-L-iduronide for Hurler, 4-methylumbelliferyl-N-acetyl-β-D-glucosaminide for Tay-sachs, 4-methylumbelliferyl-β-D-glucopyranoside for Gaucher, 4-methylumbelliferyl-α-Galactopiranosid for Fabry disease, and 6-hexadecanoylamino-4-methylumbelliferyl-P-colline for Niemann-Pick type AB. The activity of the enzyme β-hexosaminidase was assayed by using 4-methylumbelliferyl-2 acetamido-2 deoxy-β-D-glucopyranoside as artificial substrate [Annunziata et al., Study of influence of sex and age on human serum lysosomal enzymes by using 4-methylumbelliferyl substrates. Clin. Chim. Acta.
Lysosomal exocytosis was monitorized by measuring the enzymatic activity of the lysosomal enzyme β-hexosaminidase in the culture medium [Xu M, et al, δ-Tocopherol reduces lipid accumulation in Niemann-Pick type C1 and Wolman cholesterol storage disorders. […] The fibroblasts were previously treated with different concentrations of bicalutamide, (S)-bicalutamide or (R)-bicalutamide (10 nmol/L, 100 nmol/L, 1 μmol/L, 10 μmol/L, 50 μmol/L and 100 μmol/L) in triplicate in 24-well plates. At 0, 24, 48 and 72 hours, 30 μL of culture medium was aliquoted for the subsequent β-hexosaminidase activity assay.
Fibroblasts from two patients affected by Sanfilippo B and Hurler diseases were treated with different concentrations of bicalutamide (racemic mixture at increasing concentrations of 0.01, 0.1, 1, 10 and 100 μM). And the increase in lysosomal exocytosis was determined by analyzing the enzymatic activity of the lysosomal enzyme β-hexosaminidase in the culture medium.
Fibroblasts from thirteen patients affected by different lysosomal storage diseases (four Sanfilippo B disease patients with different genotypes, three Sanfilippo A disease patients with different genotypes, two Tay-Sachs disease patients with the same genotype, one Gaucher disease patient, one Niemann-pick type A/B disease patient, one Hurler disease patient, and one Fabry disease patient) were independently treated with different concentrations of (R)- and (S)-bicalutamide (50 and 100 μM) for 72 hours.

[2] = test system: fibroblasts from patients affected by different lysosomal storage diseases; experiment: Determination of glycosaminoglycans (GAGs), 1,9-dimethylmethylene blue (DMB) assay; type: cell-based, human; conditions: for Decrease of GAGs (%), Median: Table 5 median over the patients' fibroblasts; for Decrease of GAGs (%), Median / Decrease of GAGs (%): 72 h; for decrease of glycosaminoglycans (in words): fibroblasts from seven patients, 50 and 100 μM
Procedure: as §1
Glycobiology. […] The fibroblasts were cultured in triplicate in 6-well plates and they were harvested 72 hours after treatment. DMB absorbance was measured in duplicate at 656 nm with a microplate reader (POLARstar Omega, BMG LABTECH, Offenburg, Germany).
Fibroblasts from three patients affected by Sanfilippo B disease and one patient affected by Hurler disease were treated with increasing concentrations of bicalutamide (racemic mixture at increasing concentrations of 0.01, 0.1, 1, 10 and 100 μM). Glycosaminoglycans (GAGs) levels were quantified with the 1,9-dimethylmethylene blue (DMB) assay.
Fibroblasts from seven patients affected by different diseases derived from lysosomal storage (three Sanfilippo B disease patients with different genotypes, one Sanfilippo A disease patient, one Tay-Sachs disease patient, one Niemann-Pick type A/B disease patient and one Hurler disease patient) were independently treated with different concentrations of (R)- and (S)-bicalutamide (50 and 100 μM).

[3] = test system: androgen receptors; conditions: cited from earlier work
[4] = Table 4 patient 1, Sanfilippo B fibroblasts, 50 μM
[5] = Table 4 patient 1, Sanfilippo B fibroblasts, 100 μM
[6] = Table 4 patient 2, Sanfilippo B fibroblasts, 50 μM
[7] = Table 4 patient 2, Sanfilippo B fibroblasts, 100 μM
[8] = Table 4 patient 3, Sanfilippo B fibroblasts, 50 μM
[9] = Table 4 patient 3, Sanfilippo B fibroblasts, 100 μM
[10] = Table 4 patient 4, Sanfilippo B fibroblasts, 50 μM
[11] = Table 4 patient 4, Sanfilippo B fibroblasts, 100 μM
[12] = Table 4 patient 5, Sanfilippo A fibroblasts, 50 μM
[13] = Table 4 patient 5, Sanfilippo A fibroblasts, 100 μM
[14] = Table 4 patient 6, Sanfilippo A fibroblasts, 50 μM
[15] = Table 4 patient 6, Sanfilippo A fibroblasts, 100 μM
[16] = Table 4 patient 7, Sanfilippo A fibroblasts, 50 μM
[17] = Table 4 patient 7, Sanfilippo A fibroblasts, 100 μM
[18] = Table 4 patient 8, Tay-Sachs fibroblasts, 50 μM
[19] = Table 4 patient 8, Tay-Sachs fibroblasts, 100 μM
[20] = Table 4 patient 9, Tay-Sachs fibroblasts, 50 μM
[21] = Table 4 patient 9, Tay-Sachs fibroblasts, 100 μM
[22] = Table 4 patient 10, Gaucher fibroblasts, 50 μM
[23] = Table 4 patient 10, Gaucher fibroblasts, 100 μM
[24] = Table 4 patient 11, Niemann-Pick AB fibroblasts, 50 μM
[25] = Table 4 patient 11, Niemann-Pick AB fibroblasts, 100 μM
[26] = Table 4 patient 12, Hurler fibroblasts, 50 μM
[27] = Table 4 patient 12, Hurler fibroblasts, 100 μM
[28] = Table 4 patient 13, Fabry fibroblasts, 50 μM
[29] = Table 4 patient 13, Fabry fibroblasts, 100 μM
[30] = Table 5 patient 1, Sanfilippo B fibroblasts, 50 μM
[31] = Table 5 patient 1, Sanfilippo B fibroblasts, 100 μM
[32] = Table 5 patient 2, Sanfilippo B fibroblasts, 50 μM
[33] = Table 5 patient 2, Sanfilippo B fibroblasts, 100 μM
[34] = Table 5 patient 3, Sanfilippo B fibroblasts, 50 μM
[35] = Table 5 patient 3, Sanfilippo B fibroblasts, 100 μM
[36] = Table 5 patient 4, Sanfilippo A fibroblasts, 50 μM
[37] = Table 5 patient 4, Sanfilippo A fibroblasts, 100 μM
[38] = Table 5 patient 5, Tay-Sachs fibroblasts, 50 μM
[39] = Table 5 patient 5, Tay-Sachs fibroblasts, 100 μM
[40] = Table 5 patient 6, Niemann-Pick AB fibroblasts, 50 μM
[41] = Table 5 patient 6, Niemann-Pick AB fibroblasts, 100 μM
[42] = Table 5 patient 7, Hurler fibroblasts, 50 μM
[43] = Table 5 patient 7, Hurler fibroblasts, 100 μM

C[C@@](O)(CS(=O)(=O)c1ccc(F)cc1)C(=O)Nc1ccc(C#N)c(C(F)(F)F)c1 (single isomer, unassigned) [(R)-BICALUTAMIDE (2)]
Increase in exocytosis (%), Median ([1]; 50 μM): 0%
Increase in exocytosis (%), Median ([1]; 100 μM): 0%
Increase in exocytosis (%) [1, 4]: 0%
Increase in exocytosis (%) [1, 5]: 257* %
Increase in exocytosis (%) [1, 6]: N.S.
Increase in exocytosis (%) [1, 7]: N.S.
Increase in exocytosis (%) [1, 8]: N.S.
Increase in exocytosis (%) [1, 9]: N.S.
Increase in exocytosis (%) [1, 10]: N.S.
Increase in exocytosis (%) [1, 11]: 0%
Increase in exocytosis (%) [1, 12]: 0%
Increase in exocytosis (%) [1, 13]: 0%
Increase in exocytosis (%) [1, 14]: N.S.
Increase in exocytosis (%) [1, 15]: N.S.
Increase in exocytosis (%) [1, 16]: N.S.
Increase in exocytosis (%) [1, 17]: 0%
Increase in exocytosis (%) [1, 18]: N.S.
Increase in exocytosis (%) [1, 19]: 0%
Increase in exocytosis (%) [1, 20]: N.S.
Increase in exocytosis (%) [1, 21]: 0%
Increase in exocytosis (%) [1, 22]: N.S.
Increase in exocytosis (%) [1, 23]: 0%
Increase in exocytosis (%) [1, 24]: N.S.
Increase in exocytosis (%) [1, 25]: 0%
Increase in exocytosis (%) [1, 26]: N.S.
Increase in exocytosis (%) [1, 27]: N.S.
Increase in exocytosis (%) [1, 28]: N.S.
Increase in exocytosis (%) [1, 29]: 0%
cell cultures with significantly increased lysosomal exocytosis [1]: one of the tested cell cultures
Decrease of GAGs (%), Median ([2]; 50 μM): 0%
Decrease of GAGs (%), Median ([2]; 100 μM): 25* %
Decrease of GAGs (%) [2, 30]: N.S.
Decrease of GAGs (%) [2, 31]: 25* %
Decrease of GAGs (%) [2, 32]: N.S.
Decrease of GAGs (%) [2, 33]: N.S.
Decrease of GAGs (%) [2, 34]: 0%
Decrease of GAGs (%) [2, 35]: 33* %
Decrease of GAGs (%) [2, 36]: 0%
Decrease of GAGs (%) [2, 37]: 0%
Decrease of GAGs (%) [2, 38]: N.S.
Decrease of GAGs (%) [2, 39]: 45* %
Decrease of GAGs (%) [2, 40]: N.S.
Decrease of GAGs (%) [2, 41]: 41* %
Decrease of GAGs (%) [2, 42]: 0%
Decrease of GAGs (%) [2, 43]: 16* %
decrease of glycosaminoglycans (in words) [2]: a decrease of GAGs levels in some cases, but with a lower intensity and not universally
anti-androgenic activity [3]: exclusively found in the (R)-enantiomer

C[C@@](O)(CS(=O)(=O)c1ccc(F)cc1)C(=O)Nc1ccc(C#N)c(C(F)(F)F)c1 [(S)-BICALUTAMIDE (1), (2S)-N-[4-cyano-3-(trifluoromethyl)phenyl]-3-[(4-fluorophenyl)sulfonyl]-2-hydroxy-2-methylpropanamide]
Increase in exocytosis (%), Median ([1]; 50 μM): 114* %
Increase in exocytosis (%), Median ([1]; 100 μM): 124* %
Increase in exocytosis (%) [1, 4]: N.S.
Increase in exocytosis (%) [1, 5]: N.S.
Increase in exocytosis (%) [1, 6]: N.S.
Increase in exocytosis (%) [1, 7]: 166* %
Increase in exocytosis (%) [1, 8]: N.S.
Increase in exocytosis (%) [1, 9]: N.S.
Increase in exocytosis (%) [1, 10]: 33* %
Increase in exocytosis (%) [1, 11]: 28* %
Increase in exocytosis (%) [1, 12]: 72* %
Increase in exocytosis (%) [1, 13]: 39* %
Increase in exocytosis (%) [1, 14]: 70* %
Increase in exocytosis (%) [1, 15]: 64* %
Increase in exocytosis (%) [1, 16]: 121* %
Increase in exocytosis (%) [1, 17]: 109* %
Increase in exocytosis (%) [1, 18]: N.S.
Increase in exocytosis (%) [1, 19]: 127* %
Increase in exocytosis (%) [1, 20]: N.S.
Increase in exocytosis (%) [1, 21]: 124* %
Increase in exocytosis (%) [1, 22]: N.S.
Increase in exocytosis (%) [1, 23]: N.S.
Increase in exocytosis (%) [1, 24]: 114* %
Increase in exocytosis (%) [1, 25]: 60* %
Increase in exocytosis (%) [1, 26]: 13629* %
Increase in exocytosis (%) [1, 27]: 5949* %
Increase in exocytosis (%) [1, 28]: 5402* %
Increase in exocytosis (%) [1, 29]: 3432* %
cell cultures with significantly increased lysosomal exocytosis [1]: ten of the thirteen
Decrease of GAGs (%), Median ([2]; 50 μM): 18* %
Decrease of GAGs (%), Median ([2]; 100 μM): 38* %
Decrease of GAGs (%) [2, 30]: N.S.
Decrease of GAGs (%) [2, 31]: 22* %
Decrease of GAGs (%) [2, 32]: 18* %
Decrease of GAGs (%) [2, 33]: 39* %
Decrease of GAGs (%) [2, 34]: 15* %
Decrease of GAGs (%) [2, 35]: 20* %
Decrease of GAGs (%) [2, 36]: 27.4* %
Decrease of GAGs (%) [2, 37]: 56* %
Decrease of GAGs (%) [2, 38]: 31* %
Decrease of GAGs (%) [2, 39]: 60* %
Decrease of GAGs (%) [2, 40]: 24* %
Decrease of GAGs (%) [2, 41]: 38* %
Decrease of GAGs (%) [2, 42]: 0%
Decrease of GAGs (%) [2, 43]: 0%
decrease of glycosaminoglycans (in words) [2]: significant and dose-dependent decrease of glycoaminoglicans
anti-androgenic activity [3]: inactive
